From patent publication US10946020B2, “Compositions and methods for treating cancer” (University of Virginia Patent Foundation, priority 2016, dated 2021)

Key:
[1] = target: DGKα (Homo sapiens, UniProt P23743); assay: DGKα kinase assay with liposomes and purified enzyme; type: biochemical; conditions: purified enzyme, liposomes; highest drug concentration 100 μM
Experimental: To obtain purified protein, 293T cells were cultured in DMEM containing 5% fetal calf serum and 1% penicillin/streptomycin (GIBCO™, Thermo Fisher Scientific, Waltham, Mass., United States of America). The cells were transiently transfected with 40 μg of pcDNA3-FLAG-DGKα plasmid/plate. The transfection was done using lipofectamine 2000 at a 2:1 ratio of DNA:lipofectamine. The cells were harvested and homogenized in lysis buffer (10 mM Na2HPO4, pH 7.4, 50 mM β-glucopyranose, 50 mM NaF, 1 mM EDTA, 1 mM EGTA, 0.02% Triton X-100, phenylmethylsulfonyl fluoride, leupeptine, and pepstatin). The cell homogenate was centrifuged at 16,000×g at 4° C. for 10 minutes. The supernatant was immunoprecipitated with anti-FLAG (M2) beads for 2 hours at 4° C. The beads were packed onto a screening column and washed five times with the lysis buffer. The protein was eluted with five successive 200 μl fractions of 0.5 mg/ml of FLAG peptide (LifeTein, LLC, Somerset, N.J., United States of America). The elution fractions containing DGKα were combined and dialyzed three times against 10 mM Na2HPO4 (pH 7.4), and 50 mM β-glucopyranose, 50 mM NaF, 1 mM EDTA, and 1 mM EGTA. The purified DGKs were quantified with UV absorbance and by comparing DGKα bands with bovine serum albumin standards on Coomassie-blue stained SDS-PAGE gels. […]

[2] = test system: GL261 GBM line; assay: cell growth suppression, live cell count; type: cell-based; conditions: Mus musculus, GL261, 96 h; single dose, live cells four days post-treatment
Experimental: (§1) Single dye controls were used for compensation. […] Experiments were repeated several times per cell type.
(§2) Several cancer cell lines were tested in vitro to determine whether ritanserin was cytotoxic. A single dose of ritanserin was sufficient to suppress cell growth in GBM lines U251 (human), GL261 (mouse), and JWL578 (human GBM stem cell line) with IC50s 5-10 μM, very similar to previous results with R59022. See also, Dominguez et al., 2013. […] Data from alamarBlue assays, a measure of cellular viability, provided similar IC50s. Immortalized astrocytes were viable above 20 μM ritanserin.

[3] = test system: JWL578 GBM stem cell line; assay: cell growth suppression, live cell count; type: cell-based; conditions: Homo sapiens, 96 h; single dose, live cells four days post-treatment
Experimental: as §1, §2

[4] = test system: U251 GBM line; assay: cell growth suppression, live cell count; type: cell-based; conditions: Homo sapiens, U-251, 96 h; single dose, live cells four days post-treatment
Experimental: as §1, §2

[5] = test system: VMM39 melanoma line; assay: cell growth suppression, live cell count; type: cell-based; conditions: Homo sapiens, VMM39, 96 h; single dose, live cells four days post-treatment
[6] = test system: B16 melanoma line; assay: cell growth suppression, live cell count; type: cell-based; conditions: Mus musculus, B16, 96 h; single dose, live cells four days post-treatment
[7] = test system: Immortalized astrocytes; assay: viability of immortalized astrocytes; type: cell-based
Description: as §1

[8] = test system: HSP60; assay: dot-blot phospho-proteomics assay in U251; type: cell-based, human; conditions: U251, 15 μM ritanserin, lysed at 24 hours
Experimental: (§3) Immunoblotting was performed as previously described. […] Antibodies were obtained from Cell Signaling Technology (Danvers, Mass., United States of America). Cells were lysed 24-72 hours post-treatment in 1× lysis buffer. The Human Phospho-Kinase Array kit (R&D Systems, Minneapolis, Minn., United States of America) was used to identify ritanserin targets. Immunoblots were performed with multiple replicates.
(§4) A dot-blot proteomics assay was used to investigate ritanserin downstream targets. U251 treated with 15 μM ritanserin were lysed at 24 hours. Several target proteins were substantially changed with ritanserin treatment. HSP60 decreased to 10% of baseline. Heat shock proteins are molecular targets in glioblastoma, and their loss prevents the unfolded protein response. See Ampie et al., 2015. HIF-1a and possibly mTOR up-regulate HSP60. P70 S6K phosphorylation at T389/T421 was decreased, as expected given DGKα activation of mTOR.

[9] = test system: P70 S6K phosphorylation at T389/T421; assay: dot-blot phospho-proteomics assay in U251; type: cell-based, human; conditions: U251, 15 μM ritanserin, lysed at 24 hours
Experimental: as §3, §4

[10] = test system: mTOR promoter; assay: mTOR promoter reporter dual luciferase assay; type: cell-based, human; conditions: U251 and VMM39, 20 μM ritanserin vs vehicle
Experimental: (§5) mTOR promoter reporter-RLuc or HIF-1α binding site-FLuc plasmids were transfected into serum-starved U251 and VMM39 one day after cell plating at 60-80% confluency using Fugene HD at 3:1 (Promega Corporation, Fitchburg, Wis., United States of America). Cells were fed several hours post-transfection and ritanserin was added. Cells were lysed after 36-48 hours and assayed with the Dual-Luciferase Reporter assay system kit (Promega Corporation, Fitchburg, Wis., United States of America) and Promega GloMax® 20/20 luminometer (Promega Corporation, Fitchburg, Wis., United States of America). Results were double-normalized using control empty vectors pRL and pGL3.
(§6) To compare to previous findings that DGKα inhibition affects mTOR transcription, U251 and VMM39 were transfected with an mTOR promoter reporter and treated with ritanserin or vehicle. […] Ritanserin therefore appears to mimic R59022's effects on known DGKα targets in the mTOR and HIF-1α signaling pathways. See Dominguez et al., 2013.

[11] = test system: HIF-1α; assay: HIF-1α binding site reporter dual luciferase assay; type: cell-based, human; conditions: U251, 20 μM ritanserin vs vehicle
Experimental: as §5, §6

[12] = test system: p53 S15; assay: immunoblot of p53 S15 phosphorylation; type: cell-based, human; conditions: extracts from U251 and VMM39 cell lines
Experimental: as §3
Decreased p53 S15 can cause chemosensitization to other cytotoxic reagents. p53 is hyper-phosphorylated after serine 15 phosphorylation in DNA-damaged cells as an […], pro-transcriptional pathway, and antagonism of S15 phosphorylation is associated with increasing sensitivity to DNA-damaging agents. See Loughery et al., 2014; and Wittlinger et al., 2007. Immunoblots of extracts from both U251 and VMM39 cell lines confirmed that ritanserin decreases S15 phosphorylation.

[13] = test system: U251 human glioblastoma cells; assay: orthotopic intracranial U251 xenograft survival; type: in vivo, athymic nu/nu mice; conditions: 50 mg/kg daily oral gavage, started one week after injection
Experimental: (§7) Intracranial surgical implantation of tumor was as previously described. See Kefas et al., 2013. In brief, 400,000 U251 human glioblastoma or 50,000 GL261 mouse glioma suspended in 4 μL of serum-free DMEM were injected into anesthetized mice through a burr hole placed […] to the bregma. Treatment for 8-9 mice per group began 6-7 days post-tumor implantation via oral gavage and continued daily. Magnetic resonance images were taken at 3 weeks post-tumor implantation to assess tumor volume, and volumes were calculated as previously described. See Kefas et al., 2013. Mice were euthanized at 20% weight loss or with the first sign of neurological impairment.
Athymic nu/nu mice were injected with U251 cells and one week later began daily oral gavage treatment.

[14] = test system: GL261 mouse glioma cells; assay: syngeneic intracranial GL261 glioma model; type: in vivo, C57BL/6 mice
Experimental: as §7
(§8) DGKα inhibition decreases T-cell anergy. Thus, it is believed that a syngeneic, immunocompetent tumor model could show a stronger survival benefit. GL261 mouse glioma cells were implanted intracranially and treatment begun six days later. Ritanserin improved median survival to 64 days versus 36 days with vehicle. […] Ritanserin treatment also yielded decreases in tumor size and prolonged survival in other cell lines and xenograft models.

[15] = test system: VMM39 human melanoma cells; assay: subcutaneous melanoma tumor model; type: in vivo, athymic nu/nu mice; conditions: 50 mg/kg, compared to vehicle and 10 mg/kg ritanserin
Experimental: For subcutaneous tumors, 250,000 VMM39 human melanoma cells were injected subcutaneously into the left flank. After two weeks, tumors were measured daily using electronic calipers and tumor volume calculated. Mice were euthanized when tumors were greater than […] in any dimension or greater than 1000 mm^3 in volume.
as §8

[16] = test system: G88 mesenchymal GBM stem cell line; assay: intracranial G88 mesenchymal GBM stem cell xenograft survival; type: in vivo, mice; conditions: 50 mg/kg daily, started six days after implantation; vehicle 17.5 days
Experimental: as §7
(§9) Glioblastomas can be categorized into four different subtypes based on gene expression patterns and clinical characterization. […] In particular, median survival increased from 17.5 days to 28.5 days in mice with xenografts from a G88 mesenchymal GBM stem cell line.

[17] = test system: G2 mesenchymal GBM stem cell line; assay: intracranial G2 mesenchymal GBM stem cell xenograft survival; type: in vivo, mice; conditions: 50 mg/kg daily oral gavage vs vehicle
[18] = test system: mesenchymal GBM cell lines; assay: ritanserin treatment of 11 GBM cell lines of various sub-types; type: cell-based; conditions: in vitro
Description: as §9

[19] = test system: NF-κB; assay: NF-κB luciferase assay; type: cell-based; conditions: two mesenchymal GBM cell lines (G2, G88)
Experimental: (§10) Since radiation is a frontline treatment for GBM, the combination of ritanserin treatment and radiotherapy was tested. The radiosensitization of two different mesenchymal GBM stem cells, including a radioresistant cell type (i.e., G88 cells) is shown in FIGS. 9A and 9B. […] Chou-Talalay analysis indicated synergy. Ritanserin treatment also appears to affect downstream regulators of the radiation response. NF-κB has been indicated as a factor in radioresistance. Thus, the effect of ritanserin on NF-κB expression was also measured in two mesenchymal GBM cell lines using a NF-κB luciferase assay.

[20] = test system: RhoA; assay: RhoA ELISA; type: cell-based; conditions: G2 and G88 mesenchymal GBM cells
Description: (§11) Further, based on increases in unprenylated ras-related protein Rap1A in various GBM cells, it appears that ritanserin inhibits geranylgeranyltransferase type 1 (GGTase I).

[21] = test system: mesenchymal GBM stem cells (G2, G88); assay: radiosensitization, soft agar colony assay; type: cell-based; conditions: 1.25 μM ritanserin, 4 Gy radiation, colonies after two weeks
Experimental: as §10

[22] = test system: U251 GBM and VMM39 melanoma cell lines; assay: Annexin V cell death assay (flow cytometry); type: cell-based, human; conditions: compared to controls
Experimental: as §1
To determine the mechanism of ritanserin cytotoxicity, ritanserin-treated cells were assayed for Annexin V-positivity as well as cellular permeability (with DNA dye 7-AAD).

[23] = test system: lung (A549) and pancreatic (MPanc-96) carcinoma cells; assay: ritanserin sensitivity after epithelial-mesenchymal transition; type: cell-based; conditions: EMT induced with TNF-alpha and TGF-beta; 15 μM (lung), 10 μM (pancreatic)
Description: Thus it appears that the mesenchymal cancer phenotype can be preferentially targeted with ritanserin in GBM and in other cancers, as well.

[24] = test system: geranylgeranyltransferase type 1 (GGTase I); assay: unprenylated Rap1A immunoblot; type: cell-based; conditions: various GBM cells
Description: as §11

[25] = target: serotonin (5-hydroxytryptamine, 5-HT) subtype 5-HT2; conditions: read-out: Ki as 5-HT2 antagonist; cited from earlier work
[26] = previous studies; cited from earlier work
[27] = previous studies (Leysen et al., 1985); cited from earlier work

DGKα, sequence (P23743 whole entry, species assumed): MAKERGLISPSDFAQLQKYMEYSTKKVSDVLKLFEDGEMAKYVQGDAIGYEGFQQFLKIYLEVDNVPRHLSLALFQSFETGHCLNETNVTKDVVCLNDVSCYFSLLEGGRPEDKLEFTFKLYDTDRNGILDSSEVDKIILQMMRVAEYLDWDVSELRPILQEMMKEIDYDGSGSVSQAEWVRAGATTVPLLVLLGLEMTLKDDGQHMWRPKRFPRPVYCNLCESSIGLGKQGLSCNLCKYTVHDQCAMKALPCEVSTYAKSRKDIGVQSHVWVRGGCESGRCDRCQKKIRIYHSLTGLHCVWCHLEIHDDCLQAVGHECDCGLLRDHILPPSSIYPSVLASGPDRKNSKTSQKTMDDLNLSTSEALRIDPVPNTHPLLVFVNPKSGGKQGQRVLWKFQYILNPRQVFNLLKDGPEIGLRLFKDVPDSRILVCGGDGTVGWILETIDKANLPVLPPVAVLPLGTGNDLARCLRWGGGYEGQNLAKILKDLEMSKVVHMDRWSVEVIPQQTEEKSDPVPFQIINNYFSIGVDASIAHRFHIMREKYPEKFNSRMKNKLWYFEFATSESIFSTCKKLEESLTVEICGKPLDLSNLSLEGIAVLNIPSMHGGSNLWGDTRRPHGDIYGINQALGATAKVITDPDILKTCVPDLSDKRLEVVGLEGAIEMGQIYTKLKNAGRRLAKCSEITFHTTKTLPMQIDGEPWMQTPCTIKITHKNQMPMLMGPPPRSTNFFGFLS

Structure (SMILES): Cc1nc2sccn2c(=O)c1CCN1CCC(=C(c2ccc(F)cc2)c2ccc(F)cc2)CC1 [ritanserin, 6-[2-[4-[bis(4-fluorophenyl)methylidene]piperidin-1-yl]ethyl]-7-methyl-[1,3]thiazolo[3,2-a]py-rimidin-5-one]
- IC50 [1]: 9 µM
- IC50 [2]: 5 to 10 µM
- IC50 [3]: 5 to 10 µM
- IC50 [4]: 5 to 10 µM
- IC50 [5]: 10 to 15 µM
- IC50 [6]: 10 to 15 µM
- ritanserin concentration at which astrocytes were viable [7]: above 20 μM
- HSP60 level [8]: 10 % of baseline
- P70 S6K phosphorylation at T389/T421 [9]: decreased
- mTOR promoter activity [10]: strongly decreased
- HIF-1α reporter activity [11]: loss of HIF-1α reporter activity
- p53 S15 phosphorylation [12]: decreases
- survival [13]: increased survival significantly
- median survival ([14]; 50 mg/kg daily oral, started six days after implantation, vehicle 36 days): 64 days
- tumor size by magnetic resonance imaging ([14]; three weeks after implantation, vs vehicle): decreased tumor size
- tumor formation [15]: delayed tumor formation
- median survival [16]: 28.5 days
- median survival [17]: increased
- sensitivity of mesenchymal GBM cell lines relative to other subtypes [18]: three to four times more sensitive
- NF-κB expression [19]: decreased NF-κB expression
- RhoA expression [20]: inhibit RhoA expression
- radiosensitization, colony number [21]: clear radiosensitization effect
- Annexin V positivity [22]: increased Annexin V
- sensitivity to ritanserin after EMT [23]: more sensitive
- GGTase I inhibition inferred from unprenylated Rap1A [24]: inhibits
- Ki [25]: 0.00039 µM
- oral bioavailability [26]: orally bioavailable
- brain exposure [27]: reach the brain in meaningful concentrations

Structure (SMILES): Cc1nc2sccn2c(=O)c1CCN1CCC(=C(c2ccccc2)c2ccc(F)cc2)CC1 [R59022]
- IC50 [1]: 20 µM
